Laboratory results published in PubChem BioAssay (NCI).
Where “and” joins values, the source holds several entries; their conditions need not be identical. Equal values may be shown once.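 Following 48 hours of exposure in 96-well plates, responses at five concentrations were used to interpolate endpoints linearly. At the GI50, growth is halved. TGI is the concentration that stops growth completely.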

Key:
Experiment in all cases: NCI anticancer screen, dose series, 48 h
[1] = tested on: CAKI-1 renal
[2] = tested on: EKVX NSCLC
[3] = tested on: HCC-2998 colon
[4] = tested on: HOP-92 NSCLC
[5] = tested on: HT29 colon
[6] = tested on: OVCAR-4 ovarian
[7] = tested on: OVCAR-5 ovarian
[8] = tested on: OVCAR-8 ovarian
[9] = tested on: SF-295 CNS
[10] = tested on: U251 CNS
[11] = tested on: MCF7 breast

Cc1cccc(C(C)C)c1NC(=O)CC1Sc2ccccc2NC1=O (stereo unspecified)
TGI [1]: > 100 µM
TGI [2]: > 100 µM
TGI [3]: > 100 µM
TGI [4]: > 100 µM
TGI [5]: > 100 µM
TGI [6]: > 100 µM
TGI [7]: > 100 µM
TGI [8]: > 100 µM
TGI [9]: > 100 µM
TGI [10]: > 100 µM

O=C(CC(=O)c1ccccc1)CC(O)(c1ccccc1)c1ccccc1
TGI [1]: 13.4 µM
TGI [3]: 23.8 µM
TGI [4]: 19.5 µM
TGI [5]: 23.7 µM
TGI [6]: 17.9 µM
TGI [7]: 25.6 µM
TGI [8]: 20.5 µM
TGI [9]: 17.1 µM
TGI [10]: 14.9 µM

COc1cc(/C=C/C(=O)O)ccc1C(=O)OCc1ccccc1
TGI [2]: > 100 µM
TGI [3]: > 100 µM
TGI [4]: > 100 µM
TGI [5]: > 100 µM
TGI [11]: > 100 µM
TGI [6]: > 100 µM
TGI [7]: > 100 µM
TGI [8]: > 100 µM
TGI [9]: > 100 µM
TGI [10]: > 100 µM

CCOC(=O)c1csc(NC(=O)CN2CCN(C)CC2)n1
TGI [1]: > 100 µM
TGI [2]: > 100 µM
TGI [3]: > 100 µM
TGI [4]: > 100 µM
TGI [5]: > 100 µM
TGI [11]: > 100 µM
TGI [6]: > 100 µM
TGI [7]: > 100 µM
TGI [8]: > 100 µM
TGI [9]: > 100 µM
TGI [10]: > 100 µM

CCCC(O)C(NC(=O)CCl)C(=O)O (stereo unspecified)
TGI [1]: > 100 µM
TGI [2]: > 100 µM
TGI [3]: > 100 µM
TGI [4]: > 100 µM
TGI [5]: > 100 µM
TGI [11]: > 100 µM
TGI [6]: > 100 µM
TGI [7]: > 100 µM
TGI [8]: > 100 µM
TGI [9]: > 100 µM
TGI [10]: > 100 µM

CC(=O)Nc1ccc(-c2nc3ccccc3s2)cc1
TGI [1]: 53.8 µM
TGI [2]: > 100 µM
TGI [3]: > 100 µM
TGI [4]: > 100 µM
TGI [5]: > 100 µM
TGI [11]: > 100 µM
TGI [6]: > 100 µM
TGI [8]: > 100 µM
TGI [9]: > 100 µM
TGI [10]: 92.6 µM

CC12CCC3C(CCC4=CC(O)CCC43C=O)C1(O)CCC2c1ccc(=O)oc1 (stereo unspecified)
GI50 [1]: 0.008 µM
TGI [1]: 0.0627 µM
TGI [2]: 0.059 µM
GI50 [3]: 0.0591 µM
TGI [3]: 0.0665 µM and 0.22 µM
TGI [4]: 0.0404 µM
GI50 [5]: 0.0667 µM
GI50 [11]: 0.00403 µM
TGI [11]: 0.0209 µM and 0.0721 µM
TGI [6]: 0.0253 µM
GI50 [7]: 0.00511 µM
GI50 [8]: 0.05 µM
TGI [8]: 0.0532 µM and 0.0526 µM
GI50 [9]: 0.05 µM
TGI [9]: 0.0466 µM and 0.107 µM
GI50 [10]: 0.05 µM
TGI [10]: 0.0292 µM and 0.064 µM

COc1cc2c3c(c4cc(OC)c(OC)cc4c2cc1OC)C(=O)C1CCC(=O)N1C3 (stereo unspecified)
TGI [1]: 38.9 µM
TGI [3]: > 100 µM
TGI [4]: 82.2 µM
TGI [11]: > 100 µM
TGI [6]: > 100 µM
TGI [8]: > 100 µM
TGI [9]: > 100 µM
TGI [10]: > 100 µM
